From patent US5128363A, “Trifluoromethoxy substituted 1,3,4,9-tetrahydropyrano-[3,4-b]indole-1-acetic acids” (American Home Products Corporation, priority 1990, dated 1992)

Assays:
[1] = test system: mice injected with a chemical irritant; experiment: Phenylbenzoquinone-induced Writhing in Mice; type: in vivo, Male Swiss albino mice; details: Mus musculus, po; for ED50: read-out: Phenylquinone Writhing in Mice, ED50
Protocol: A further test used to determine the utility of the compounds of the present invention is designated: Drug Effects on Phenylbenzoquinone-induced Writhing in Mice.
The objective of this test is to determine the ability of test drugs to inhibit the nociceptive (pain) response of mice injected with a chemical irritant. This test is a primary screen for both peripheral and centrally acting analgesic drugs.
Male Swiss albino mice (15-25 g). The animals are fasted for 18 hours prior to use but have free access to water.
Drug Preparation and Administration:
Drugs are dissolved or suspended according to their solubility in 0.5% Tween 80 in distilled water. They are administered by gastric gavage in a volume of 5 mL/kg. For primary screening all drugs are administered at the arbitary dosage of 10 mg/kg, p.o. to a group of 10 mice.
A modification of the method of Siegmund et al, Proc. Soc. Exp. Biol. Med., 95, 729-731 (1957) is used. Groups of 5 mice are dosed with the test compound or vehicle control. Sixty minutes later the animals are injected i.p. with 0.3 mL/20 g body weight of a 0.02% solution of phenylbenzoquinone (PBQ; 2-phenyl-1,4-benzoquinone) and placed in individual observation boxes. The number of writhing or abdominal squirming movements made by each mouse during the following 15 min. period is counted. The experiment is repeated with another group of 5 mice and the mean number of writhes per mouse for a group of 10 mice is calculated.
Drug treated and vehicle-treated control groups are compared and the percentage protection conferred by the drug is calculated: [formula] where c=mean number of writhes in the control group where t=mean number of writhes in the test drug group

[2] = test system: rats with established adjuvant arthritis; experiment: Curative Adjuvant Arthritis; type: in vivo, Male inbred Wistar Lewis rats; details: for Injected Paw Edema / Non-Injected Paw Edema: change day 16 to day 25; for Body Weight Change: day 16 to day 25
Text: An additional test used to determine the utility of the compounds of the present invention is designated: Curative Adjuvant Arthritis. The objective of this test is to evaluate the ability of drugs to decrease edema in rats with established adjuvant arthritis in order to characterize further the anti-inflammatory activity of the compounds of the present invention. Species Male inbred Wistar Lewis rats with an initial body weight of 180-200 g were used. The animals had free access to food and water throughout the test. Drug Preparations and Administration Freund's Complete Adjuvant (FCA) was prepared by suspending 5 mg killed and dried Mycobacterium butyricum (Difco) in 1 mL mineral oil. The test compounds were dissolved, or suspended with a few drops of Tween 80, in distilled water according to their solubility. […] The volume of both hind paws were measured and body weight recorded at that time. On day 16 after FCA injection the volume of both hind paws were again measured. […] Mean body weight for each group was recorded. Drug or vehicle treatment was initiated on day 16. Animals were dosed daily from day 16 to day 25 (i.e. a total of […]). The volume of both hind paws and the body weight of the animal was recorded 2 hours after the last drug administration. Vehicle treated arthritic animals acted as a vehicle-treated control group and animals treated with etodolac (3 mg/kg po) acted as a positive control group. […] The ED50, or dose which causes such an effect in 50% animals, is calculated by probit analysis.

[3] = test system: rats injected intradermally in the left hind paw with Freund's complete adjuvant; experiment: Preventative Adjuvant Edema; type: in vivo, Male Sprague Dawley rats; details: Rattus norvegicus, po, 25 mg/kg p.o., edema volume day 3 vs day 0, read-out: Preventative Adjuvant Edema, percent inhibition
Protocol: This test is a primary screen for anti-inflammatory drugs.
Male Sprague Dawley rats (180-200 g) are used. The animals have free access to water but food is withdrawn 18 hours before testing.
Drug Preparations and Administration:
Freund's complete adjuvant is prepared by suspending 5 mg of killed and dried Mycobacterium butyricum (Difco) in 1 mL mineral oil. The test compounds are dissolved, or suspended in 0.5% Tween 80 in distilled water according to their solubility. For primary screening all drugs are administered by gastric gavage at the arbitrary dosage of 25 mg/kg, p.o. in a volume of 0.5 mL/100 g body weight to groups of 10 animals.
The method is essentially that described by Wax et al, J. Pharmacol. Exp. Ther., 192, 166-171 (1975). Groups of rats are injected intradermally in the left hind paw with 0.1 mL of Freund's complete adjuvant. […] The injected hind paw volume is measured before the injection of adjuvant and 24 hrs. after the last drug administration (day 3) by means of a plethysmometer (Buxco Electronics Inc.). […]
The mean edema volume (expressed as mL±SEM) is calculated for each group and the percentage protection conferred by the drug is calculated: [formula] where c is the mean edema volume for the vehicle-treated (0.5% Tween 80 in distilled water) controls and t is the means edema volume for the drug treated group.

Row | SMILES | ED50 [1] | Injected Paw Edema ([2]; 0.3 mg/kg/day p.o.) | Non-Injected Paw Edema ([2]; 0.3 mg/kg/day p.o.) | Body Weight Change ([2]; 0.3 mg/kg/day p.o.) | Injected Paw Edema ([2]; 1 mg/kg/day p.o.) | Non-Injected Paw Edema ([2]; 1 mg/kg/day p.o.) | Body Weight Change ([2]; 1 mg/kg/day p.o.) | Injected Paw Edema ([2]; 3 mg/kg/day p.o.) | Non-Injected Paw Edema ([2]; 3 mg/kg/day p.o.) | Body Weight Change ([2]; 3 mg/kg/day p.o.) | inhibition at 25 mg/kg [3] | inhibition at 10 mg/kg ([1]; 10 mg/kg p.o., read-out: Phenylquinone Writhing in Mice, percent inhibition) | anti-inflammatory effect relative to etodolac ([2]; 1 mg/kg/day p.o.) | health as assessed by body weight gain ([2]; highest dose, 3 mg/kg/day) | potency relative to etodolac ([2]; more potent than etodolac, curative adjuvant arthritis)
1 | CCc1cccc2c3c([nH]c12)C(CC)(CC(=O)O)OCC3 (centres unmarked) [etodolac, reference compound] | 168 mg/kg | +1.12 mL | +1.86 mL | -3 g | +0.40 mL | +1.14 mL | -9 g | -0.28 mL | +0.51 mL | +10 g | 68% | – | – | – | –
2 | CCC1(CC(=O)O)OCCc2c1[nH]c1cc(OC(F)(F)F)ccc21 (centres unmarked) [1-Ethyl-1,3,4,9-tetrahydro-7-(trifluoromethoxy)-pyrano[3,4-b]indole-1-acetic Acid] | 24 mg/kg | +0.53 mL | +1.21 mL | +2 g | -0.18 mL | +0.35 mL | +2 g | -0.60 mL | +0.11 mL | +20 g | 88% | 47% | intermediate between that produced by 1 and 3 mg/kg etodolac | appeared healthy | approximately 2 fold
